Reference: PMC10609429, “Crystal Structure and Intermolecular Energy for Some Nandrolone Esters” (Molecules, 2023)
≈ marks a conversion by molar mass, not a printed value. Where “and” joins values, the source holds several entries; their conditions need not be identical. Equal values may be shown once. Read-outs that look alike come from different tables or passages of the source.

Columns and labels:
[1] = Solubility evaluation of nandrolone esters in oil / benzyl benzoate / benzyl alcohol mixtures; assay type: physicochemical; settings: 24 °C, oil or lipid, thermodynamic from solid
Protocol: From a pharmaceutical standpoint, the solubility of esterified agents (mg/mL) plays an important role in drug development and delivery. In this context, the solubilities were evaluated in multiple mixtures based on various organic oils: medium-chain triglyceride (MCT), apricot, grape seed oil (GSO) and cottonseed oil. Each solution contains a mixture of benzyl alcohol, benzyl benzoate and oil with a volumetric ratio of 2% benzyl alcohol, 20% benzyl benzoate and the rest of 78% oil.
Solubility evaluation was accomplished at a room temperature of 24 °C in successive additions of small quantities of raw materials (a few mg each step). The mixtures were stirred for up to several hours in order to achieve a completely dissolved solution. In the case that an undissolved excess of raw materials remained in the suspension, small quantities of mixtures were added until the solutions became perfectly homogenous and clear. Two measurements were performed in order to attain a good accuracy; their average was further discussed.

[2] = set-up: method as in PMID 28522428; settings: two polymorphs, respectively; ambient temperature of 20 °C; mixtures of castor oil; cited from earlier work
[3] = set-up: method as in PMID 817322; settings: oral vs subcutaneous; cited from earlier work
[4] = unesterified nandrolone; cited from earlier work
[5] = analogue esters of testosterone; cited from earlier work
[6] = average over the four oil mixtures (apricot, GSO, MCT, cottonseed), read-out: Solubility (average)
[7] = medium-chain triglyceride mixture: 2% benzyl alcohol, 20% benzyl benzoate, 78% oil (v/v), room temperature 24 °C, average of two measurements, read-out: Solubility, MCT
[8] = apricot oil / benzyl benzoate / benzyl alcohol mixture, apricot oil mixture: 2% benzyl alcohol, 20% benzyl benzoate, 78% oil (v/v), room temperature 24 °C, average of two measurements, read-out: Solubility, APRICOT
[9] = cottonseed oil / benzyl benzoate / benzyl alcohol mixture, cottonseed oil mixture: 2% benzyl alcohol, 20% benzyl benzoate, 78% oil (v/v), room temperature 24 °C, average of two measurements, read-out: Solubility, COTTON
[10] = grape seed oil / benzyl benzoate / benzyl alcohol mixture, grape seed oil mixture: 2% benzyl alcohol, 20% benzyl benzoate, 78% oil (v/v), room temperature 24 °C, average of two measurements, read-out: Solubility, GSO

Row | SMILES | solubility [1, 6] [mg/mL] | solubility [1, 7] [mg/mL] | solubility [1, 8] [mg/mL] | solubility [1, 9] [mg/mL] | solubility [1, 10] [mg/mL] | further results
1 | C[C@]12CC[C@H]3[C@@H](CCC4=CC(=O)CC[C@@H]43)[C@@H]1CC[C@@H]2OC(=O)CCc1ccccc1 [NPhp, Nandrolone phenylpropionate] | ~138 (≈ 339 mM) | 148 (≈ 365 mM) | 127 (≈ 313 mM) | 140 (≈ 345 mM) | 137 (≈ 336 mM) | –
2 | CCC(=O)OC1CCC2C3CCC4=CC(=O)CCC4C3CCC12C (centres unmarked) [NPro, Nandrolone propionate] | ~188 (≈ 569 mM) | 187 (≈ 566 mM) | 181 (≈ 548 mM) | 180 (≈ 544 mM) | 204 (≈ 619 mM) | –
3 | CCCCCCCCCCC(=O)OC1CCC2C3CCC4=CC(=O)CCC4C3CCC12C (centres unmarked) [NUnd, Nandrolone undecanoate] | ~192 (≈ 433 mM) | 211 (≈ 478 mM) | 183 (≈ 413 mM) | 199 (≈ 450 mM) | 173 (≈ 391 mM) | –
4 | CCCCCC(=O)O[C@]1(C(C)=O)CC[C@H]2[C@@H]3CCC4=CC(=O)CC[C@]4(C)[C@H]3CC[C@@]21C [hydroxyprogesterone caproate] | – | – | – | – | – | solubility [2]: 278 mg/mL and 301 mg/mL
5 | C[C@]12CC[C@H]3[C@@H](CCC4=CC(=O)CC[C@@H]43)[C@@H]1CC[C@@H]2O [nandrolone, Estr-4-en-17β-ol-3-one] | – | – | – | – | – | Potency of the oral form compared with subcutaneous administration [3]: one-tenth; Half-life [4]: a few hours
6 | C[C@]12CC[C@H]3[C@@H](CCC4=CC(=O)CC[C@@]43C)[C@@H]1CC[C@@H]2OC(=O)CCC1CCCC1 [testosterone cypionate] | – | – | – | – | – | solubility [5]: 255 mg/mL (≈ 618 mM)
7 | CCCCCCCCCCC(=O)O[C@H]1CC[C@H]2[C@@H]3CCC4=CC(=O)CC[C@]4(C)[C@H]3CC[C@]12C [undecanoate ester of testosterone] | – | – | – | – | – | solubility [5]: 197 mg/mL (≈ 431 mM)
